Results: patent US11166891B2, “Bis phenyl hexa trien derivatives, preparation method thereof, and composition for skin whitening containing the same as an active ingredient” (Korea Research Institute of Chemical Technology, priority 2018, dated 2021)

Tests used:
B16F10 melanoma cells = experiment: Cytotoxicity, MTT assay; type: cell-based; conditions: 48 hours; for cytotoxicity: at the concentration of 10 μM or more
Experimental: B16F10 melanoma cells were distributed in a 96-well plate at the density of 2×10^3 cells/well. The cells were cultured in DMEM supplemented with 10% fetal bovine serum (FBS) at 37° C. in 5% CO2 for 24 hours. The cells were exposed on the compounds of example and comparative examples 1˜4 at the set concentration each for 48 hours. MTT assay was performed to evaluate cytotoxicity. To perform MTT assay, MTT solution was added to the cells, followed by reaction for 2 hours. Then, DMSO was added thereto to dissolve formazan crystals, followed by measurement of OD570.

[1] = system: tyrosinase gene expression in B16F10 melanoma cells; experiment: Inhibition of tyrosinase gene expression (real-time PCR); type: cell-based; conditions: α-MSH 10 nM, compound 2 μM, 72 hours, mRNA corrected to β-actin, FIG. 2
Experimental: (§1) B16F10 melanoma cells were distributed in a 6-well plate, to which α-MSH (10 nM) (melanin synthesis inducing substance, alpha-melanocyte-stimulating hormone) and the compounds of example and comparative examples 1˜4 were treated at the concentration of 2 μM each, followed by exposure-culture for 72 hours. Then, the cells were harvested and total RNA of the cells was extracted using RNeasy mini kit (Qiagen). CDNA was synthesized by using M-MLV reverse transcriptase, 5X first-strand butter, dNTP mix and oligo(dT) primer (Thermo Fisher Scientific). The cDNA product, the primers of each gene and LightCycler® MultiplexMasters (Roche) were mixed, followed by SYBR Green-based real-time PCR using LightCycler® NanoInstrument (Roche). To relatively evaluate the level of tyrosinase mRNA expression, the expression was corrected based on the level of β-actin mRNA expression. The PCR conditions for gene amplification are as follows.
Denaturation: 95° C., 10 seconds
Annealing: melting point of each primer, 10 seconds
Extension/Detection: 72° C., 20 seconds
Total cycle number: 45 cycles
Information on the primers used for the amplification of tyrosinase gene expression and information on the primers for β-actin used as a correction gene are as follows.

mushroom tyrosinase = experiment: Tyrosinase activity inhibition (L-DOPA oxidation); type: biochemical; conditions: pH 7.0, FIG. 8; for inhibitory effect on tyrosinase activity: 6.25 μM (equal concentration)
Experimental: Samples were dissolved in an organic solvent such as ethanol, which were diluted in a proper buffer such as 100 mM phosphate buffer (pH 7.0). Those samples diluted at a proper concentration in order to inhibit the activity to DOPA oxidation reaction were used as the sample solutions for the experiment. 850 μL of 100 mM phosphate buffer (pH 7.0), 50 μL of the sample solution and 50 μL of mushroom tyrosinase (2000 U/ml) were loaded in a test tube in that order, followed by reaction at 37° C. for 5 minutes. 50 μL of 0.06 mM L-DOPA (L-3,4-dihydroxyphenylalanine) solution was added thereto, and then OD475 was measured using a microplate reader. After reacting the solution at 37° C. for 15 minutes, OD475 was measured again. DMSO was used as the control and Kojic acid was used for the positive control.
Tyrosinase activity inhibition rate (%)=[(A-B)/A]×100
A: difference of OD in the control group (OD after the reaction—OD before the reaction)
B: difference of OD in the experimental group (OD after the reaction—OD before the reaction)

[2] = system: TRP 1 (tyrosinase-related protein 1) gene expression in B16F10 melanoma cells; experiment: Inhibition of TRP 1 gene expression (real-time PCR); type: cell-based; conditions: α-MSH 10 nM, compound 2 μM, 72 hours, FIG. 4a
Experimental: as §1
(§2) Evaluation of TRP 1 and TRP 2 gene expression was performed by the same manner as described in the evaluation of tyrosinase gene expression. Information on the primers used for the amplification of TRP 1 and TRP 2 gene expression is as follows.

[3] = system: melanin synthesis in B16F10 melanoma cells; experiment: Melanin synthesis inhibition; type: cell-based; conditions: α-MSH 10 nM, 72 hours
Experimental: B16F10 melanoma cells were distributed in a 96-well plate at the density of 3×10^5 cells/well. The cells were cultured in DMEM supplemented with 10% FBS at 37° C. in 5% CO2 for 24 hours. […] The cells were harvested, followed by dissolving in 1 N NaOH by heating at 80° C. for 20 minutes. Then, OD490 was measured. The melanin synthesis inhibition rate was calculated as follows.
Melanin inhibition rate (%)=[(C−S)/C]×100
C: OD when α-MSH alone was treated.
S: OD when each sample was treated.

[4] = system: MITF (microphthalmia-associated transcription factor) gene expression in B16F10 melanoma cells; experiment: Inhibition of MITF gene expression (real-time PCR); type: cell-based; conditions: α-MSH 10 nM, compound 2 μM, 72 hours, FIG. 3
Experimental: as §1
Evaluation of MITF gene expression was performed by the same manner as described in the evaluation of tyrosinase gene expression in experimental example 1. Information on the primers used for the amplification of MITF gene expression is as follows.

[5] = system: TRP 2 (tyrosinase-related protein 2) gene expression in B16F10 melanoma cells; experiment: Inhibition of TRP 2 gene expression (real-time PCR); type: cell-based; conditions: α-MSH 10 nM, compound 2 μM, 72 hours, FIG. 4b
Experimental: as §1, §2

[6] = Antioxidative effect, DPPH radical scavenging activity test; conditions: 37° C., 30 minutes, FIG. 5
Experimental: The antioxidative effect was evaluated by 2,2-diphenyl-1-picrylhydrazyl (DPPH) radical scavenging activity test.
Dimethyl sulfoxide (DMSO), vitamin C and the compounds of example and comparative examples 1˜4 were added to a 96-well plate at each designated concentration, and 200 μL of 200 μM DPPH methanolic solution was added to each well. The plate was shaken gently to mix them all, followed by reaction at 37° C. for 30 minutes. Then, OD515 was measured. DMSO was used as the control for the measurement of antioxidative effect and vitamin C was used as the positive control for the measurement of antioxidative effect.

COc1cc(/C=C/C=C/C=C/c2ccc(O)c(OC)c2)ccc1O [comparative example 1, 4,4′-((1E,3E,5E)-hexa-1,3,5-triene-1,6-diyl)bis(2-methoxyphenol), reference compound]
cytotoxicity (B16F10 melanoma cells): strong cytotoxicity | inhibitory effect on tyrosinase gene expression (relative expression level) [1]: hardly had inhibitory effect on the expression of tyrosinase gene

COc1ccc(/N=C/c2ccc(O)cc2O)cc1 [compound 2, (E)-4-((4-methoxyphenylimino)methyl)benzene-1,3-diol]
inhibitory effect on tyrosinase activity (mushroom tyrosinase): did not show inhibitory effect on tyrosinase activity

Oc1ccc(/C=C/C=C/C=C/c2ccc(O)cc2)cc1 [compound 3, 4,4′-((1E,3E,5E)-hexa-1,3,5-triene-1,6-diyl)diphenol]
cytotoxicity (B16F10 melanoma cells): strong cytotoxicity | inhibitory effect on tyrosinase activity (mushroom tyrosinase): did not show inhibitory effect on tyrosinase activity

COc1ccc(/C=C/C=C/C=C/c2ccc(OC)c(O)c2)cc1O [compound 4, 5,5′-((1E,3E,5E)-hexa-1,3,5-triene-1,6-diyl)bis(2-methoxyphenol)]
cytotoxicity (B16F10 melanoma cells): strong cytotoxicity

COc1cccc(/C=C/C=C/C=C/c2cccc(OC)c2OC)c1OC [compound of example, (1E,3E,5E)-1,6-bis(2,3-dimethoxyphenyl)hexa-1,3,5-triene]
inhibitory effect on TRP 1 gene expression (relative expression level) [2]: excellent in inhibiting TRP1 and TRP2 gene expression | melanin content in the cells ([3]; versus comparative examples, FIG. 7): significantly lower | melanin content in media and cells ([3]; compound 1 μM, versus comparative examples 1˜4, FIG. 7): lower in both media and cells | inhibitory effect on MITF gene expression (relative expression level) [4]: excellent in inhibiting MITF gene expression | inhibitory effect on TRP 2 gene expression (relative expression level) [5]: excellent in inhibiting TRP1 and TRP2 gene expression | antioxidative effect (DPPH radical scavenging activity) ([6]; 40 μM, compared with comparative examples 1˜4): excellent antioxidative effect | antioxidative effect (DPPH radical scavenging activity) ([6]; about 25 μM, compared with comparative examples 1˜3): excellent antioxidative effect | cell survival rate (B16F10 melanoma cells; concentration increased from 5 μM to 15 μM, FIG. 6): ≥ 80% | reduction of tyrosinase activity (mushroom tyrosinase; 6.25 μM): approximately 20% | inhibitory effect on tyrosinase gene expression (relative expression level) [1]: excellent in inhibiting tyrosinase gene expression
